The term mass density denotes mass per unit of volume.

Numbers after ± are expanded uncertainties.

The conditions of the data set: 298.15 K; 101.33 kPa; Liquid; Pycnometric method.
Regarding `CCCO` [propan-1-ol], the mass density amounted to 799.98 ± 0.72 kg/m3. The value for `CC(C)O` [propan-2-ol] was 781.35 ± 0.7 kg/m3; that for `CCO` [ethanol] was 785.35 ± 0.71 kg/m3. As to `CCC(C)O` (stereo unspecified) [butan-2-ol], the mass density was 802 ± 1 kg/m3. Take `CO` [methanol]: the mass density worked out at 786.57 ± 0.71 kg/m3. The same measure for `CCCCO` [butan-1-ol]: 805.85 ± 0.72 kg/m3.

The record behind these values is the NIST ThermoML archive (doi:10.1021/je800446c).
